Data as given in ChEMBL document CHEMBL6087403 (Bioorg Med Chem Lett, 2025).
The source made the active and inactive calls. The calls are words filed in the database; no cut-off is given here.

Assays:
[1] = Antioxidant activity assessed as DPPH radical scavenging activity incubated for 1 hr by spectrophotometric analysis; format: functional
[2] = molecular target: Alpha glucosidase (Homo sapiens, UniProt O43451+P10253+P14410+Q2M2H8); experiment: Inhibition of alpha-glucosidase (unknown origin); format: protein assay

SMILES	Activity [1]	IC50 [2]	IC50 [1]
CC1=C(C(=O)[C@@H](C)c2ccccc2)C(c2ccc(C)cc2)NC(=S)N1 (some centres not stated)	inactive	47.3 µM	
CCOC(=O)C1=C(C)NC(SC)N(C)C1c1ccccc1 (configuration not stated)		24.2 µM	21.4 µM
CC1=C(C(=O)[C@@H](C)c2ccccc2)C(c2ccccc2)NC(=S)N1 (some centres not stated)		61.1 µM	67.8 µM
CCOC(=O)C1=C(C)NC(NN)N(C)C1c1ccccc1.Cl.Cl (configuration not stated)		31.1 µM	92.1 µM
COC(=O)C1=C(C)NC(SC)N(C)C1c1ccccc1 (configuration not stated)		84.2 µM	69.5 µM
CCOC(=O)C1=C(C)NC(SC)N(C)C1c1ccc(C)cc1 (configuration not stated)		44.4 µM	87.3 µM
CCOC(=O)C1=C(C)NC(SC)N(C)C1c1cccc(OC)c1OC (configuration not stated)		35.9 µM	38.8 µM
CCOC(=O)C1=C(C)NC(NN)N(C)C1c1ccc(C)cc1.Cl.Cl (configuration not stated)		71.1 µM	85.1 µM
CC1=C(C(=O)O)C(c2ccc(C)cc2)NC(=S)N1 (configuration not stated)		39.2 µM	90.8 µM
CC1=C(C(=O)O)C(c2ccccc2)NC(=S)N1 (configuration not stated)		89.5 µM	59.8 µM
CCOC(=O)C1=C(C)n2nnnc2N(C)C1c1ccc(C)cc1.Cl.Cl (configuration not stated)		61.1 µM	68.2 µM
CCOC(=O)C1=C(C)NC(NN)N(C)C1c1cccc(O)c1.Cl.Cl (configuration not stated)		62.7 µM	79.3 µM
CC1=C(C(=O)[C@H](C)c2ccccc2)C(c2ccc(C)cc2)NC(=S)N1 (some centres not stated)	inactive	41.2 µM	
COC(=O)C1=C(C)n2nnnc2N(C)C1c1ccccc1.Cl.Cl (configuration not stated)		65.1 µM	55.1 µM
CCOC(=O)C1=C(C)NC(SC)N(C)C1c1cccc(O)c1 (configuration not stated)		21.5 µM	29.5 µM
COc1ccc(O)c(C(C)(C)C)c1			44.2 µM
CC1=C(C(=O)[C@H](C)c2ccccc2)C(c2ccccc2Cl)NC(=S)N1 (some centres not stated)		23.3 µM	31.2 µM
CCOC(=O)C1=C(C)n2nnnc2N(C)C1c1ccccc1.Cl.Cl (configuration not stated)		39.4 µM	33.2 µM
CC1=C(C(=O)O)C(c2ccccc2Cl)NC(=S)N1 (configuration not stated)		12.5 µM	45.3 µM
CC1=C(C(=O)[C@@H](C)c2ccccc2)C(c2ccccc2Cl)NC(=S)N1 (some centres not stated)		18.9 µM	29.8 µM
CC1=C(C(=O)[C@H](C)c2ccccc2)C(c2ccccc2)NC(=S)N1 (some centres not stated)		76.2 µM	69 µM
CCOC(=O)C1=C(C)NC(SC)N(C)C1c1ccc([N+](=O)[O-])cc1 (configuration not stated)		33.3 µM	61.2 µM
CCOC(=O)C1=C(C)n2nnnc2N(C)C1c1cccc(O)c1.Cl.Cl (configuration not stated)		45.6 µM	49.2 µM
CCOC(=O)C1=C(C)NC(NN)N(C)C1c1ccc([N+](=O)[O-])cc1.Cl.Cl (configuration not stated)		72.4 µM	66 µM
